Here are results for 3 compounds from patent US20140031432A1, “TREATMENT OF MITOCHONDRIAL DISEASES WITH VITAMIN K” (Ampere Life Sciences, Inc., priority 2010, published 2014).

Holding throughout (format): cell-based
Experiment [1] relates to human dermal fibroblasts from LHON patients. The experiment is described as follows: Rescue of fibroblasts from LHON patients from oxidative stress (Example C). Conditions: Fibroblast, LHON cells (Coriell GM03858), screen as in Example A (BSO stress), read-out: protection against LHON, EC50. The procedure: [The source words this procedure for another cell line and reports this cell line under the same test.] (§1) Test samples and solvent controls were tested for their ability to rescue FRDA fibroblasts stressed by addition of L-buthionine-(S,R)-sulfoximine (BSO), as described in Jauslin et al., Hum. Mol. Genet. 11(24):3055 (2002), Jauslin et al., FASEB J. 17:1972-4 (2003), and International Patent Application WO 2004/003565. […] This specific BSO-mediated cell death can be prevented by administration of antioxidants or molecules involved in the antioxidant pathway, such as alpha-tocopherol, selenium, or small molecule glutathione peroxidase mimetics. However, antioxidants differ in their potency, i.e. the concentration at which they are able to rescue BSO-stressed FRDA fibroblasts.
(§2) MEM (a medium enriched in amino acids and vitamins, catalog no. 1-31F24-I) and Medium 199 (M199, catalog no. 1-21F22-I) with Earle's Balanced Salts, without phenol red, were purchased from Bioconcept. Fetal Calf Serum was obtained from PAA Laboratories. Basic fibroblast growth factor and epidermal growth factor were purchased from PeproTech. […]
(§3) 100 μl of PBS containing 1.2 μM Calcein AM were then added to each well. […] After that time the PBS was discarded, the plate gently tapped on a paper towel and fluorescence (excitation/emission wavelengths of 485 nm and 525 nm, respectively) was read on a Gemini fluorescence reader. […]

In experiment [2] the test system is Human dermal fibroblasts from Friedreich's ataxia patients. The experiment is described as follows: Rescue of BSO-stressed FRDA fibroblasts (Example A). Conditions: FRDA fibroblasts (Coriell GM04078), 1 mM BSO, 48 h, Calcein AM viability, read-out: protection against FRDA, EC50. As to the method:
as §1
(§4) MEM (a medium enriched in amino acids and vitamins, catalog no. 1-31F24-I) and Medium 199 (M199, catalog no. 1-21F22-I) with Earle's Balanced Salts, without phenol red, were purchased from Bioconcept. Fetal Calf Serum was obtained from PAA Laboratories. Basic fibroblast growth factor and epidermal growth factor were purchased from PeproTech. Penicillin-streptomycin-glutamine mix, L-buthionine (S,R)-sulfoximine, and insulin from bovine pancreas were purchased from Sigma. Calcein AM was purchased from Molecular Probes. Cell culture medium was made by combining 125 ml M199 EBS, 50 ml Fetal Calf Serum, 100 U/ml penicillin, 100 μg/ml streptomycin, 2 mM glutamine, 10 μg/ml insulin, 10 ng/ml EGF, and 10 ng/ml bFGF; MEM EBS was added to make the volume up to 500 ml. A 10 mM BSO solution was prepared by dissolving 444 mg BSO in 200 ml of medium with subsequent filter-sterilization. During the course of the experiments, this solution was stored at +4° C. The cells were obtained from the Coriell Cell Repositories (Camden, N.J.; repository number GM04078) and grown in 10 cm tissue culture plates. Every third day, they were split at a 1:3 ratio. […]
as §3

Experiment [3] concerns human dermal fibroblasts from Huntington's patients. The experiment is described as follows: Rescue of fibroblasts from Huntington's patients from oxidative stress (Example B). The settings on record: Fibroblast, Huntington's cells (Coriell GM 04281), screen as in Example A (BSO stress), read-out: protection against Huntington's, EC50. As to the method:
[The source words this procedure for another cell line and reports this cell line under the same test.] as §1, §4, §3

The subject of experiment [4] is human dermal fibroblasts from Parkinson's disease patients. The experiment is described as follows: Rescue of fibroblasts from Parkinson's disease patients from oxidative stress (Example D). Conditions: Fibroblast, Parkinson's disease cells (Coriell AG20439), screen as in Example A (BSO stress), read-out: protection against PD, EC50. The procedure: [The source words this procedure for another cell line and reports this cell line under the same test.] as §1, §2, §3

The structures appear in SMILES notation.

The EC50 is the concentration at which the effect is half-maximal. As to `CC(C)=CCCC(C)=CCC1=C(C)C(=O)c2ccccc2C1=O` [2-(3,7-dimethylocta-2,6-dien-1-yl)-3-methylnaphthalene-1,4-dione], the EC50 in experiment [1] was below 300 nM; in experiment [2], below 1000 nM; in experiment [3], below 500 nM; in experiment [4], below 500 nM.
For the compound `CC(C)=CCC/C(C)=C/CC/C(C)=C/CC/C(C)=C/CC1=C(C)C(=O)c2ccccc2C1=O` [2-methyl-3-[3,7,11,15-tetramethylhexadeca-2,6,10,14-tetraen-1-yl]naphthoquinone], the EC50 is below 1000 nM in experiment [2] and below 500 nM in experiment [3].
For `CC1=CC(=O)c2ccccc2C1=O` [2-methylnaphthalene-1,4-dione], the EC50 is below 300 nM in experiment [1], below 1000 nM in experiment [2], below 500 nM in experiment [3] and below 500 nM in experiment [4].
